Data set [1] relates to Staphylococcus aureus. The data set can be described thus: Antibacterial activity against Staphylococcus aureus KCTC 1621 assessed as disruption of cellular structure at 3 x MIC after 1 hr by transmission electron microscopic analysis. Type of data set: functional, organism-based.
Data set [2] deals with Escherichia coli. The data set can be described thus: Antibacterial activity against Escherichia coli KCTC 1682 assessed as disruption of cellular structure at 3 x MIC after 1 hr by transmission electron microscopic analysis. The format is functional, organism-based.
The test system of data set [3] is Staphylococcus aureus. Kind of data set: Antibacterial activity against Staphylococcus aureus KCTC 1621 assessed as growth inhibition at 50 ug/ml after 18 to 20 hrs by broth microdilution method in presence of trypsin. The format is functional, organism-based. A general note: Broth dilution looks for growth in wells or tubes with falling amounts of substance.
Data set [4] relates to Escherichia coli. The data set can be described thus: Antibacterial activity against Escherichia coli KCTC 1682 assessed as growth inhibition at 50 ug/ml after 18 to 20 hrs by broth microdilution method in presence of trypsin. The format is functional, organism-based.
In data set [5] the test system is Staphylococcus aureus. Kind of data set: Antibacterial activity against Staphylococcus aureus KCTC 1621 assessed as growth inhibition after 18 to 20 hrs by broth microdilution method in presence of NaCl. Type of data set: functional.
Data set [6] concerns Bacillus subtilis. The data set can be described thus: Antibacterial activity against Bacillus subtilis KCTC 3068 assessed as growth inhibition after 18 to 20 hrs by broth microdilution method in presence of NaCl. The format is functional.
The test system of data set [7] is Staphylococcus epidermidis. Kind of data set: Antibacterial activity against Staphylococcus epidermidis KCTC 1917 assessed as growth inhibition after 18 to 20 hrs by broth microdilution method in presence of NaCl. Type of data set: functional.
Data set [8] relates to Salmonella typhimurium. The data set can be described thus: Antibacterial activity against Salmonella typhimurium KCTC 1926 assessed as growth inhibition after 18 to 20 hrs by broth microdilution method in presence of NaCl. The format is functional, Salmonella enterica subsp. enterica serovar Typhimurium. As to conditions: Salmonella enterica.
Data set [9] concerns Pseudomonas aeruginosa. Kind of data set: Antibacterial activity against Pseudomonas aeruginosa KCTC 1637 assessed as growth inhibition after 18 to 20 hrs by broth microdilution method in presence of NaCl. Type of data set: functional.
In data set [10] the test system is Escherichia coli. Kind of data set: Antibacterial activity against Escherichia coli KCTC 1682 assessed as growth inhibition after 18 to 20 hrs by broth microdilution method in presence of NaCl. The format is functional.
The subject of data set [11] is Staphylococcus aureus. Kind of data set: Antibacterial activity against methicillin-resistant Staphylococcus aureus CCARM 3095 assessed as growth inhibition after 18 to 20 hrs by broth microdilution method. The format is functional.
Data set [12] in a line: Hemolytic activity in human RBC assessed as hemoglobin release after 1 hr. The format is ADME, cell-based, Erythrocyte. As to conditions: red blood cells (RBC).
Data set [13] relates to Staphylococcus aureus. The data set can be described thus: Antibacterial activity against Staphylococcus aureus KCTC 1621 assessed as growth inhibition after 18 to 20 hrs by broth microdilution method. Type of data set: functional.
The subject of data set [14] is Bacillus subtilis. The data set can be described thus: Antibacterial activity against Bacillus subtilis KCTC 3068 assessed as growth inhibition after 18 to 20 hrs by broth microdilution method. The format is functional.
The subject of data set [15] is Staphylococcus epidermidis. Kind of data set: Antibacterial activity against Staphylococcus epidermidis KCTC 1917 assessed as growth inhibition after 18 to 20 hrs by broth microdilution method. Type of data set: functional.
The test system of data set [16] is Salmonella typhimurium. The data set can be described thus: Antibacterial activity against Salmonella typhimurium KCTC 1926 assessed as growth inhibition after 18 to 20 hrs by broth microdilution method. Type of data set: functional, Salmonella enterica subsp. enterica serovar Typhimurium. As to conditions: Salmonella enterica.
For data set [17], the system named is Pseudomonas aeruginosa. Kind of data set: Antibacterial activity against Pseudomonas aeruginosa KCTC 1637 assessed as growth inhibition after 18 to 20 hrs by broth microdilution method. The format is functional.
Data set [18] deals with Escherichia coli. The data set can be described thus: Antibacterial activity against Escherichia coli KCTC 1682 assessed as growth inhibition after 18 to 20 hrs by broth microdilution method. Type of data set: functional.
The test system of data set [19] is Staphylococcus aureus. The data set can be described thus: Antibacterial activity against methicillin-resistant Staphylococcus aureus CCARM 3089 assessed as growth inhibition after 18 to 20 hrs by broth microdilution method. Type of data set: functional.
Data set [20] has as its system Staphylococcus aureus. Kind of data set: Antibacterial activity against methicillin-resistant Staphylococcus aureus CCARM 3090 assessed as growth inhibition after 18 to 20 hrs by broth microdilution method. Type of data set: functional.

The source made the active and inactive calls. No cut-off for these calls is given here.

Regarding `CCCCCCCCCCn1c[n+](CCCCCCCCCC)cc1C[C@H](N)C(=O)N[C@@H](CCCNC(=N)N)C(=O)N[C@@H](CCCNC(=N)N)C(N)=O`, the result in the data set with Staphylococcus aureus [1] and in the data set with Escherichia coli [2] was Active. Moreover, the “growth inhibition (GI)” value in the data set with Staphylococcus aureus [3] and in the data set on Escherichia coli [4] was “Active” each time. The MIC came to 8 µg/mL with Staphylococcus aureus [5]; 4 µg/mL with Bacillus subtilis [6]; 4 µg/mL in data set [7]; 16 µg/mL in the data set on Salmonella typhimurium [8]; 8 µg/mL in the data set on Pseudomonas aeruginosa [9]; 16 µg/mL in the data set on Escherichia coli [10]. For the same molecule, the MIC amounted to 4 µg/mL in the data set with Staphylococcus aureus [11]; 4 µg/mL with Staphylococcus aureus [13]; 4 µg/mL in the data set on Bacillus subtilis [14]; 4 µg/mL in [15]; 8 µg/mL with Salmonella typhimurium [16]; 8 µg/mL in the data set on Pseudomonas aeruginosa [17]. For the same molecule, the results for the MIC in the data set on Escherichia coli [18], in the data set with Staphylococcus aureus [19] and in the data set on Staphylococcus aureus [20] were 8 µg/mL, 4 µg/mL and 4 µg/mL, respectively. Further, the HC50 at 1 h in data set [12] was found to be 110 µg/mL.
Turning to `CCCCCCCCCCn1c[n+](CCCCCCCCCC)cc1C[C@H](NC(=O)[C@@H](N)CCCNC(=N)N)C(=O)N[C@@H](CCCNC(=N)N)C(N)=O`, the outcome in the data set on Staphylococcus aureus [1] and with Escherichia coli [2] was Active. Further, the “growth inhibition (GI)” value with Staphylococcus aureus [3] and with Escherichia coli [4] was “Active” throughout. For the same molecule, the MIC amounted to 4 µg/mL in the data set with Staphylococcus aureus [5]; 4 µg/mL in the data set on Bacillus subtilis [6]; 4 µg/mL in data set [7]; 16 µg/mL in the data set with Salmonella typhimurium [8]; 8 µg/mL with Pseudomonas aeruginosa [9]; 16 µg/mL in the data set with Escherichia coli [10]. The MIC in the data set with Staphylococcus aureus [11] was found to be 4 µg/mL; in the data set with Staphylococcus aureus [13], 4 µg/mL; in the data set with Bacillus subtilis [14], 4 µg/mL; in data set [15], 4 µg/mL; in the data set on Salmonella typhimurium [16] it was 8 µg/mL; in the data set with Pseudomonas aeruginosa [17], 8 µg/mL. Moreover, the MIC in the data set with Escherichia coli [18] stood at 8 µg/mL; with Staphylococcus aureus [19], 8 µg/mL; with Staphylococcus aureus [20], 4 µg/mL. In addition, the HC50 at 1 h in data set [12] amounted to 121 µg/mL.

The MIC is the lowest concentration found to suppress growth. The HC50 is the concentration giving 50% haemolysis.
